In patent US9062095B2, “Mutant double cyclized receptor peptides inhibiting β1-adrenoceptor antibodies” (JULIUS-MAXIMILIANS-UNIVERSTITAT-WURZBURG, priority 2007, dated 2015):
Positions of bridges follow the written chain, without caps; N, C: chain ends.

Tests used:
anti-β1-ECII antibodies = assay: ELISA-competition assay: peptide preincubated with sera/IgG of immunized antibody-positive rats, linear 25AA Cys/Cys-peptide as antigen; assay type: binding, rat; settings: n=6 sera; incubation 12-14 h, 4° C.; mean ±SEM (FIG. 27)
Protocol: FIG. 9 is a diagram composed of two major-(upper and lower) panels resuming the blocking effect of both 25AA- and 18AA-cyclopeptide mutants having a Gln closure site, as well as 18AA cyclopeptide mutants having a D-Glu closure site after preincubation (12 h, 4° C., rotating incubation) with sera isolated from 69 different immunized antibody-positive rats in an ELISA-competition assay using the 3 Cys-containing linear 25AA Cys/Cys-peptide as an antigen. The upper panel depicts rat sera preferentially reacting with the Cys/Ser mutated cyclopeptides (type1 reaction, n=64), separated in cyc25AA(Gln)-peptides (left) and cyc18AA(Gln and D-Glu)-peptides (right). The lower panel depicts the rat sera reacting with both the Cys/Ser and the Ser/Cys mutated cyclopeptides (type2 reaction, n=5), again separated in the results obtained with cyc25AA(Gln)-peptides (left) and cyc18AA(Gln and D-Glu)-peptides (right).
FIG. 11 is a diagram resuming the dose-dependent (x-axis, abscissa: fold molar excess of specific peptides) blocking capacity of various linear and cyclic beta1-ECII-peptides given in % of the unblocked antibody-titer (y-axis, ordinate), including 25AA Cys/Cys linear peptides (black squares), 25AA Cys/Ser cyclopeptide mutants (white squares), 18AA Cys/Cys cyclo-peptides (black diamonds), 18AA Cys/Ser cyclopeptide mutants (white diamonds), and 18AA Cys/Ser linear peptide mutants (vertically hatched diamonds) in an ELISA competition assay performed with sera from n=6 randomly chosen immunized antibody-positive rats.
FIGS. 27A and B depict the in vitro blocking (=neutralization) capacity of various cysteine-containing cyclopeptide variants of the second extracellular loop (ECII) of the human beta1-adrenergic receptor, determined by testing n=6 individual sera (27A) of immunized beta1-ECII-antibody-positive rats after over-night incubation with the indicated cyclopeptides (12-14 h, 4° C.) by ELISA. Columns in 27A represent the receptor-antibody blocking efficiency of the indicated cyclopeptides in % of the antibody-(ELISA-)signals obtained with unblocked antibody-positive rat sera. Columns in 27B represent the mean blocking efficiency for each cyclopeptide, error bars indicate ±SEM.
The blocking capacity of β1-ECII-18AA cyclopeptide mutants (Cys13-Ser14 or Ser13-Cys14 mutation having an additional D-Glu-Gln exchange, e.g. at the ring closure site) was compared with the 3 Cys-containing 25AA or 18AA Cys/Cys cyclopeptides after preincubation (12 h, 4° C., rotating incubation over-night) of different numbers of sera from immunized antibody-positive rats in an ELISA-competition assay using the 3 Cys-containing linear 25AA Cys/Cys-peptide as an antigen. FIGS. 4, 5, and 7-10 show the results from measurements performed with sera of n=12 up to n=82 immunized antibody-positive rats using different cyclopeptides of the present invention.

[1] = test system: beta1-ECII receptor antibody-titers; assay: in vivo therapy study cyc22AA versus cyc18AA Cys/Ser in rats immunized over 8 months: antibody-titers; set-up: species or system rat; settings: injections every 4 weeks, start at month 8; mean ±SEM (FIG. 28A)
Source text: FIGS. 28A and B depict the in vivo blocking (=neutralization) capacity of two cysteine-containing 18AA or 22AA cyclopeptide-mutants of the second extracellular loop (ECII) of the human beta1-adrenergic receptor upon therapeutic injection of the different constructs into rats regularly immunized since 8 months (first=basic immunization followed by 7 antigen-boosts every 4 weeks). The effects of four to five subsequent cyclopeptide-injections every 4 weeks are shown. FIG. 28A depicts the mean values±SEM of each of the treated groups of immunized beta1-ECII-antibody positive cardiomyopathic rats (animal number per group is given in the legend). […] The remaining receptor antibody-titers after each injection in % of the antibody-titers at start therapy (month 8) are depicted (columns). Error bars indicate ±SEM. Numbers in columns indicate the number of (subsequent) monthly injection.
FIG. 28B depicts the time course of antibody-titers after 4 subsequent cyclopeptide-injections, determined before and 20-22 hours after application of the indicated constructs. Values are given in percent of increase or decrease in the respective antibody-titers after each cyclopeptide-injection compared with the antibody-titer determined at start of therapy (month 8). […]

[2] = test system: immunized beta1-ECII-antibody positive cardiomyopathic rats; assay: echocardiographic follow-up of the cyc22AA versus cyc18AA therapy study; assay type: in vivo, rat; settings: after 4 months of treatment, 1.0 mg/kg Bw (FIG. 29)
Source text: FIG. 29A is a diagram showing the time course (month 0 to 12) of the internal end-systolic and end-diastolic left ventricular diameters (LVES, LVED) of GST/beta1-ECII-immunized untreated (black circles) versus GST/beta1-ECII-immunized animals treated with the indicated various cyclopeptides (see legend) as determined by 2D- and M-mode echocardiography (echocardiographic system: Visual Sonics, Vevo 770 (version V2.2.3), equipped with a 15-17.5 MHz transducer), whereby LVES/LVED is left ventricular end-systolic diameter/left ventricular end-diastolic diameter.
FIG. 29B is a diagram depicting the time course (month 0 to 12) of the “Cardiac index” (CI) in ml/min/g (body weight) as determined by 2D- and Doppler-echocardiography (echocardiographic system see above).
In addition, echocardiographic follow-up data after 4 months of treatment also show a superiority of cyc22AA mutants compared with the cyc18AA Cys/Ser mutant regarding their cardioprotective effects in vivo, as assessed by the decrease in both left ventricular end-diastolic (LVED) and end-systolic (LVES) diameters (FIG. 29A), and an increase in “Cardiac Index” (CI, given in ml/min/g body weight; see FIG. 29B), as determined by 2 dimensional- and Doppler-echocardiography using a Visual Sonics echocardiographic system (Vevo 770, version V2.2.3), equipped with a 17.5 MHz transducer).

With “Cyclo-Arg-Ala-Glu-Ser-Asp-Glu-Ala-Arg-Arg-Cys-Tyr-Asn-Asp-Pro-Lys-Cys-Ser-Asp-Phe-Val-Thr-Gly (cyclo(RAESDEARRCYNDPKCSDFVTG); disulfide 10-16 (inferred)) [cyc22AA Cys/Ser]” the “blocking-efficiency versus unblocked sera” value (anti-β1-ECII antibodies) was 74.9±5.0%, the “antibody-titer remaining after 4 injections in percent of the titer at start of therapy” value [1] was 9.0±2.2% and the “cardioprotective effects in vivo (decrease in LVED and LVES diameters, increase in Cardiac Index)” value [2] was “superiority”.
